Test results taken from patent publication US11752095B2, “Medroxyprogesterone acetate injectable compositions and methods of use” (Family Health International, priority 2018, dated 2023).
Like-named read-outs stand apart in the source and are kept apart here.

Test: Pharmacokinetics in women (Example 23)
Assay type: in vivo
Details: composition with 400 mg/ml MPA; for Cmax / half-life / Tmax / concentration at 28 day / concentration at 91 day / concentration at 182 day: female, human, in vivo
Protocol: 12 women were sequentially administered medroxyprogesterone acetate. PK was evaluated for at least 182 days. The composition tested was an embodiment of the disclosure and included 400 mg/ml MPA,

CC(=O)O[C@]1(C(C)=O)CC[C@H]2[C@@H]3C[C@H](C)C4=CC(=O)CC[C@]4(C)[C@H]3CC[C@@]21C [medroxyprogesterone acetate]
AUC0-28, Mean (N 6): 9.84 ng·days/mL
AUC0-28, Median (N 6): 9.31 ng·days/mL
AUC0-28, Min-Max (N 6): 7.83 to 14.52 ng·days/mL
AUC0-91, Mean (N 6): 34.52 ng·days/mL
AUC0-91, Median (N 6): 34.87 ng·days/mL
AUC0-91, Min-Max (N 6): 23.41 to 44.06 ng·days/mL
AUC0-182, Mean (N 6): 60.21 ng·days/mL
AUC0-182, Median (N 6): 60.28 ng·days/mL
AUC0-182, Min-Max (N 6): 38.62 to 84.88 ng·days/mL
Cmax (N 6, read-out: Cmax, Mean): 0.53 ng/mL
Cmax (N 6, read-out: Cmax, Median): 0.55 ng/mL
Cmax (N 6, read-out: Cmax, Min-Max): 0.42 to 0.69 ng/mL
half-life (N 6, read-out: Half-life, Mean (converted)): 99.4 days
half-life (N 6, read-out: Half-life, Median (converted)): 104 days
half-life (N 6, read-out: Half-life, Min-Max): 22.9 to 166 days
Tmax (N 6, read-out: Tmax, Mean (converted)): 17.4 days
Tmax (N 6, read-out: Tmax, Median (converted)): 9.49 days
concentration at 28 day (day 28, N 6, read-out: C28, Mean): 0.36 ng/mL
concentration at 28 day (day 28, N 6, read-out: C28, Median): 0.36 ng/mL
concentration at 28 day (day 28, N 6, read-out: C28, Min-Max): 0.03 to 0.5 ng/mL
concentration at 91 day (day 91, N 6, read-out: C91, Mean): 0.41 ng/mL
concentration at 91 day (day 91, N 6, read-out: C91, Median): 0.41 ng/mL
concentration at 91 day (day 91, N 6, read-out: C91, Min-Max): 0.26 to 0.63 ng/mL
concentration at 182 day (day 182, N 6, read-out: C182, Mean): 0.22 ng/mL
concentration at 182 day (day 182, N 6, read-out: C182, Median): 0.22 ng/mL
concentration at 182 day (day 182, N 6, read-out: C182, Min-Max): 0.14 to 0.34 ng/mL
